Experiments:
M. aeruginosa UTEX 2385 = assay: MIC 96-well microtiter plate assay in BG-11, 10 days; type: cell-based, Microcystis aeruginosa; details: for In vivo chlorophyll a of M. aeruginosa: 10 days, initial 0.1 ug/L
Protocol: MICs for the samples against M. aeruginosa were determined in a standard 96-well microtiter plate assay in BG-11 with a starting inoculum of ˜1×10^5 cells/mL. Algae plates were incubated for 10 days. MIC concentrations were determined visually, in vivo chlorophyll a was determined fluorometrically, and cell density was determined via direct counting. Samples were tested in duplicate.

[1] = Solubility remark on stock solution preparation; type: physicochemical; details: stock solution made using 2% DMSO solution, heated
Microcystis aeruginosa = assay: 15-day flask exposure of Microcystis aeruginosa to DDA and Cutrine-Plus; type: cell-based; details: for Cell Densities of Microcystis aeruginosa 15 days after: initial 4.5×10^4 cells/mL
Protocol: (§1) The experiment was conducted for 15 days and was initiated using 100 mL BG-11 medium contained in 200 mL flasks. […] The experiment was initiated by exposing the algae to 0.1, 0.2, 0.4, 0.8, and 1.6 mg/L as DDA, 0.2, 0.6, 1.0 mg Cu/L Cutrine®-Plus, and combinations of DDA and Cutrine®-Plus. […] The solution was heated in a water bath and diluted to 70 mg/L using warmed deionized water. The concentration of DMSO was approximately 350 mg/L in the test beakers. Cutrine®-Plus stock solution was made at 50 mg/L using deionized water. Three replicates of each exposure concentration, along with three replicates of an untreated reference were tested. Each sample was Maintained at room temperature with 12-hours of light and 12-hours dark photo period.

Cladophora sp. = assay: 15-day flask exposure of Cladophora sp. to DDA and Cutrine-Plus; type: cell-based; details: at concentrations comparable to Cutrine-Plus
Protocol: as §1, with “and 12-h” for “and 12-hours”, “dark photoperiod. […] 15 days after exposure. The Bars in FIG. 3 sharing the same letter are not different according to Fishers Protected LSD test at p≤0.05 significance level.” for “dark photo period.”

Row | Compound | In vivo chlorophyll a of M. aeruginosa (M. aeruginosa UTEX 2385; 0.031 active ppm) [µg/L] | In vivo chlorophyll a of M. aeruginosa (M. aeruginosa UTEX 2385; 0.063 active ppm) [µg/L] | In vivo chlorophyll a of M. aeruginosa (M. aeruginosa UTEX 2385; 0.125 active ppm) [µg/L] | In vivo chlorophyll a of M. aeruginosa (M. aeruginosa UTEX 2385; 0.25 active ppm) [µg/L] | In vivo chlorophyll a of M. aeruginosa (M. aeruginosa UTEX 2385; 0.5 active ppm) [µg/L] | MIC (M. aeruginosa UTEX 2385; Microcystis aeruginosa, UTEX2385, 240 h, determined visually, 10 days incubation, read-out: MIC values per individual sample, M. aeruginosa) [µg/mL] | solubility [1] | log reduction in M. aeruginosa cells (Microcystis aeruginosa; 0.4 mg/L, 15 days after start, compared to untreated reference) [log] | Chlorophyll a content of M. aeruginosa compared to untreated reference algae (Microcystis aeruginosa; 0.2 to 1.6 ppm (mg/L), 15 days after start, p<0.01) | Cell Densities of Microcystis aeruginosa 15 days after (Microcystis aeruginosa; DDA 0.1 mg/L, 15 days) | Cell Densities of Microcystis aeruginosa 15 days after (Microcystis aeruginosa; DDA 0.2 mg/L, 15 days) | Cell Densities of Microcystis aeruginosa 15 days after (Microcystis aeruginosa; DDA 0.4 mg/L, 15 days) | Cell Densities of Microcystis aeruginosa 15 days after (Microcystis aeruginosa; DDA 0.8 mg/L, 15 days) [cells/mL] | Cell Densities of Microcystis aeruginosa 15 days after (Microcystis aeruginosa; DDA 1.6 mg/L, 15 days) [cells/mL] | concentration necessary to achieve similar results as Cutrine-Plus (cell count data) (Microcystis aeruginosa; M. aeruginosa control, 15 days) [mg/L] | effectiveness as an algaecide on Microcystis aeruginosa (Microcystis aeruginosa; at concentrations comparable to Cutrine-Plus) | effectiveness as an algaecide on Cladophora sp. (Cladophora sp.)
1 | CCCCCCCCCCCCN.Cl [1-dodecylammonium chloride] | 7.20 | 4.65 | 2.05 | 0.15 | 0.00 | 0.25 |  |  |  |  |  |  |  |  |  |  | 
2 | CCCCCCCCCCCCN [dodecylamine] | 7.85 | 5.75 | 2.60 | 0.35 | 0.00 |  | low solubility | 1 | reduced | 5.2 × 10^6 cells/mL | 6.7 × 10^6 cells/mL | 8.0 × 10^5 cells/mL | <10000 | <10000 | 0.8 | effective | effective

— patent US20180249707A1, “METHOD OF CONTROLLING ALGAE IN A BODY OF WATER” (priority 2013, published 2018)
